The supplement of paper PMC10307832

Tests used:
Experiment in all cases: relative viability (nuclei count vs DMSO), 5 days (fraction); higher = more cells survive
TPCA-1 + Olaparib = compound: C1=CC(=CC=C1C2=CC(=C(S2)NC(=O)N)C(=O)N)F [TPCA-1] + O=C(c1cc(Cc2n[nH]c(=O)c3ccccc23)ccc1F)N1CCN(C(=O)C2CC2)CC1 [Olaparib] (partner 8 µM)
Outline: (§1)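 Lung cancer cell lines were pin-tool dosed in 1536-well plates on the day after seeding, with either a lone drug or a fixed anchor-drug dose plus five library-drug doses (not always all listed) in √10 steps. Nuclei were counted on 4× images after 5 days. Relative viability is the ratio of treated-well to vehicle-well nuclei counts, with each value a median of duplicate plates.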

[1] = compound: C[C@]12O[C@H](C[C@]1(O)CO)n1c3ccccc3c3c4c(c5c6ccccc6n2c5c31)CNC4=O [Lestaurtinib] + N=C(N)NC(=N)NCCc1ccccc1 [Phenformin] (partner 250 µM)
Outline: as §1

[2] = compound: C1/C(=C\C2=CC=CS2)/C(=O)/C(=C/C3=CC=CS3)/C1 + CC(=O)c1c(C)c2cnc(Nc3ccc(N4CCNCC4)cn3)nc2n(C2CCCC2)c1=O [Palbociclib] (partner 0.5 µM)
Outline: as §1

TPCA-1 + Phenformin = compound: C1=CC(=CC=C1C2=CC(=C(S2)NC(=O)N)C(=O)N)F [TPCA-1] + N=C(N)NC(=N)NCCc1ccccc1 [Phenformin] (partner 250 µM)
Outline: as §1

Cell Line | relative viability (TPCA-1 + Olaparib; first compound 0.04 µM) | relative viability (TPCA-1 + Olaparib; first compound 0.1265 µM) | relative viability (TPCA-1 + Olaparib; first compound 0.4 µM) | relative viability (TPCA-1 + Olaparib; first compound 1.265 µM) | relative viability (TPCA-1 + Olaparib; first compound 4 µM) | relative viability ([1]; first compound 0.005 µM) | relative viability ([1]; first compound 0.01581 µM) | relative viability ([1]; first compound 0.05 µM) | relative viability ([1]; first compound 0.1581 µM) | relative viability ([1]; first compound 0.5 µM) | relative viability ([2]; first compound 0.2 µM) | relative viability ([2]; first compound 0.6325 µM) | relative viability ([2]; first compound 2 µM) | relative viability ([2]; first compound 6.325 µM) | relative viability ([2]; first compound 20 µM) | relative viability (TPCA-1 + Phenformin; first compound 0.04 µM) | relative viability (TPCA-1 + Phenformin; first compound 0.1265 µM) | relative viability (TPCA-1 + Phenformin; first compound 0.4 µM) | relative viability (TPCA-1 + Phenformin; first compound 1.265 µM) | relative viability (TPCA-1 + Phenformin; first compound 4 µM)
LU99A | 0.257 | 0.277 | 0.293 | 0.223 | 0.168 | 0.819 | 0.76 | 0.627 | 0.438 | 0.315 | 0.402 | 0.395 | 0.481 | 0.368 | 0.38 | 0.989 | 0.82 | 0.835 | 0.646 | 0.603
BEN | 1.08 | 0.977 | 1.32 | 1.04 | 0.869 | 0.292 | 0.316 | 0.267 | 0.237 | 0.196 | 0.504 | 0.531 | 0.511 | 0.411 | 0.518 | 0.304 | 0.262 | 0.255 | 0.254 | 0.249
SK-LU-1 | 0.544 | 0.37 | 0.428 | 0.418 | 0.315 | 0.46 | 0.488 | 0.293 | 0.329 | 0.163 | 0.39 | 0.443 | 0.427 | 0.357 | 0.399 | 0.719 | 0.461 | 0.662 | 0.44 | 0.238
NCI-H1975 | 0.843 | 0.72 | 0.806 | 0.735 | 0.6 | 0.464 | 0.44 | 0.363 | 0.353 | 0.275 | 0.661 | 0.547 | 0.426 | 0.506 | 0.549 | 0.445 | 0.392 | 0.435 | 0.405 | 0.312
NCI-H522 | 0.834 | 0.504 | 0.642 | 0.643 | 0.556 | 0.722 | 0.614 | 0.634 | 0.552 | 0.525 | 0.855 | 1.33 | 1.03 | 0.735 | 0.917 | 0.67 | 0.611 | 0.504 | 0.776 | 0.621
RERF-LC-KJ | 0.952 | 0.857 | 0.884 | 0.911 | 0.78 | 0.448 | 0.38 | 0.391 | 0.419 | 0.295 | 1.04 | 1.2 | 1.05 | 0.965 | 0.852 | 0.425 | 0.393 | 0.424 | 0.408 | 0.37
NCI-H441 | 0.461 | 0.454 | 0.53 | 0.443 | 0.436 | 0.885 | 0.854 | 0.533 | 0.767 | 0.555 | 0.242 | 0.217 | 0.234 | 0.197 | 0.25 | 1.15 | 0.688 | 0.934 | 0.703 | 0.283
LCLC-103H | 0.747 | 0.788 | 0.782 | 0.868 | 0.779 | 0.336 | 0.379 | 0.327 | 0.288 | 0.234 | 0.49 | 0.456 | 0.469 | 0.426 | 0.469 | 0.335 | 0.321 | 0.345 | 0.332 | 0.357
HCC-78 | 0.917 | 0.844 | 0.892 | 1.01 | 0.493 | 0.658 | 0.816 | 0.556 | 0.425 | 0.406 | 0.486 | 0.457 | 0.534 |  | 0.451 | 0.724 | 0.732 | 0.657 | 0.693 | 0.436
NCI-H1915 | 0.28 | 0.266 | 0.26 | 0.274 | 0.219 | 0.349 | 0.37 | 0.311 | 0.34 | 0.204 | 0.507 | 0.55 | 0.515 | 0.459 | 0.5 | 0.403 | 0.362 | 0.385 | 0.321 | 0.289
